Where a name gives a salt, the structure may show the parent alone.
Key:
[1] = tested on: ID188 patient-derived PDAC 2D line (pre-FOLFIRINOX); experiment: normalised area under dose-response curve (viability relative to DMSO, 7 doses up to 10 µM) (fraction (AUC)); higher = less sensitive (more viability retained); conditions: 72 h; top dose: 10 µM
How it was run: (§1)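 2D PDAC cells grown out from patient-derived organoids were robotically seeded in 96-well plates at 1,500–3,000 cells/well and kept overnight at 37°C in 5% CO2. Compounds from a SelleckChem library were then applied for 72 h at seven concentrations, made as a 3-fold dilution series with 10 µM as the highest. CellTiter-Glo luminescence was measured 10 min later. Viability was normalised to control wells, and the GRmetrics R package was used to derive the area under the dose-response curve.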

[2] = tested on: ID211 patient-derived PDAC 2D line (post-FOLFIRINOX); experiment: as above; conditions: 72 h; top dose: 10 µM
How it was run: as §1

Row | Compound | normalised area under dose-response curve [1] | normalised area under dose-response curve [2]
1 | CC(C)(O)CNc1nc(Nc2ccnc(C(F)(F)F)c2)nc(-c2cccc(C(F)(F)F)n2)n1 [Enasidenib (AG-221)] | 0.97 | 0.875
2 | O=C(Nc1cc(C(F)(F)F)ccc1N1CCCCC1)c1ccncc1 [SRPIN340] | 0.964 | 0.905
3 | CCN1CCN(Cc2ccc(C(=O)Nc3ccc(C)c(Oc4ccc5c(c4)CC(=O)N5)c3)cc2C(F)(F)F)CC1 [DDR1-IN-1] | 0.934 | 0.908
4 | NC(=O)C1CCCc2c1[nH]c1ccc(Cl)cc21 (stereo not given) [Selisistat (EX 527)] | 0.971 | 0.997
5 | CCC(=O)Nc1cccc(Oc2nc(Nc3ccc(N4CCN(C)CC4)cc3OC)ncc2Cl)c1 [WZ4003] | 0.965 | 0.896
6 | Cc1cc(SCc2sc(-c3ccc(C(F)(F)F)c(F)c3)nc2C)ccc1OCC(=O)O [GW0742] | 0.763 | 0.93
7 | CNC(=O)c1cc(Oc2ccc(NC(=O)Nc3ccc(Cl)c(C(F)(F)F)c3)c(F)c2)ccn1 [Regorafenib (BAY 73-4506)] | 0.775 | 0.936
8 | COc1cc(CCc2cc(NC(=O)c3ccc(N4CC(C)NC(C)C4)cc3)n[nH]2)cc(OC)c1 (stereo not given) [AZD4547] | 0.998 | 0.829
9 | CC[C@@H]1C(=O)N(C)c2cnc(Nc3ccc(C(=O)N[C@H]4CC[C@H](N5CCN(CC6CC6)CC5)CC4)cc3OC)nc2N1C(C)C [Volasertib (BI 6727)] | 0.701 | 0.707
10 | Cc1cc(/N=N/c2ccc(S(=O)(=O)Nc3ccccn3)cc2)c(N)cc1O [MS436] | 0.977 | 0.957
11 | O=C(Nc1ccccc1)c1cc([N+](=O)[O-])ccc1Cl [GW9662] | 0.931 | 0.936
12 | CC(C)c1cc(-c2n[nH]c(=O)n2-c2ccc3c(ccn3C)c2)c(O)cc1O [Ganetespib (STA-9090)] | 0.483 | 0.266
13 | O=c1cc(-c2cccc3c2Sc2ccccc2S3)oc(N2CCOCC2)c1 | 0.945 | 0.834
14 | CCc1cc2c(cc1N1CCC(N3CCOCC3)CC1)C(C)(C)c1[nH]c3cc(C#N)ccc3c1C2=O [Alectinib hydrochloride] | 0.779 | 0.789
15 | OCc1ccc(-c2ccc(-c3ccc(CO)s3)o2)s1 | 0.917 | 0.896
16 | CC(=O)c1cc([N+](=O)[O-])c(Sc2cccc(Cl)c2Cl)s1 | 0.98 | 0.848
17 | CNCc1ccc(-c2cc(-c3nc(-c4ccc(S(=O)(=O)C(C)C)cc4)cnc3N)on2)cc1 [VE-822] | 0.693 | 0.888
18 | O=C1C(=Cc2cccnc2)C(=O)c2ccccc21 [PRT4165] | 0.875 | 0.746
19 | C[C@@H](NC(=O)c1ncnc(N)c1Cl)c1ncc(C(=O)Nc2cc(C(F)(F)F)c(Cl)cn2)s1 [MLN2480] | 0.905 | 0.818
20 | Cc1cc(Nc2ncc(Cl)c(Nc3ccccc3S(=O)(=O)C(C)C)n2)c(OC(C)C)cc1C1CCNCC1 [Ceritinib (LDK378)] | 0.823 | 0.685
21 | CN(C)C/C=C/C(=O)Nc1cc2c(Nc3ccc(F)c(Cl)c3)ncnc2cc1O[C@H]1CCOC1 [Afatinib (BIBW2992) Dimaleate] | 0.855 | 0.58
22 | CC(C)N(CCCNC(=O)Nc1ccc(C(C)(C)C)cc1)C[C@H]1O[C@@H](n2ccc3c(N)ncnc32)[C@H](O)[C@@H]1O | 0.952 | 0.899
23 | Cc1cc(CS(=O)(=O)c2ccccc2)cc(OCc2ccc(CN3CCC[C@@H]3CO)cc2)c1 [PF-543] | 0.924 | 0.903
24 | Cc1nn(C)c(COc2ccc(N3CCN(S(=O)(=O)N(C)C)CC3)cc2)c1-c1cccc2c(CCCOc3cccc4ccccc34)c(C(=O)O)n(CCN3CCOCC3)c12 | 0.98 | 0.938
25 | Oc1ccc(-c2nc(-c3ccc(F)cc3)c(-c3ccncc3)[nH]2)cc1 | 0.95 | 1
26 | Nc1ccn([C@@H]2O[C@H](CO)[C@@H](O)C2(F)F)c(=O)n1 [Gemcitabine HCl] | 0.57 | 0.583
27 | CNC(=O)c1cc(Oc2ccc(NC(=O)Nc3cc(C(C)(C)C)nn3-c3ccc4ncccc4c3)c(F)c2)ccn1 [Rebastinib (DCC-2036)] | 0.853 | 0.885
28 | Cn1cncc1[C@@](N)(c1ccc(Cl)cc1)c1ccc2c(c1)c(-c1cccc(Cl)c1)cc(=O)n2C [Tipifarnib] | 0.913 | 0.832

Row | Compound | normalised area under dose-response curve [1] | normalised area under dose-response curve [2]
29 | Cc1ccc(S(=O)(=O)/C=C/C#N)cc1 [BAY 11-7082] | 0.957 | 0.839
30 | CCOc1ccn(-c2ccc(F)cc2)c(=O)c1C(=O)Nc1ccc(Oc2ccnc(N)c2Cl)c(F)c1 | 0.882 | 0.945
31 | CC(C)CC(CC(=O)NO)C(=O)N[C@@H](Cc1ccc2ccccc2c1)C(=O)N[C@@H](C)C(=O)NCCN (stereo not given in full) [TAPI-1] | 0.641 | 0.9
32 | Cc1cccc(-c2[nH]c(CNc3ccccc3F)nc2-c2ccc3ncnn3c2)n1 [Vactosertib (TEW-7197)] | 0.931 | 0.871
33 | O=C(/C=C/c1ccc2ccccc2n1)c1ccncc1 [PFK15] | 0.911 | 0.778
34 | Cc1cc(NC(=O)c2cccc(NC(=O)/C=C/CN(C)C)c2)ccc1Nc1nccc(-c2cccnc2)n1 [JNK-IN-8] | 0.874 | 0.842
35 | O=C1NCCCc2c1oc1ccc(O)cc21 | 0.904 | 0.878
36 | O=C(NC[C@H](O)CN1CCc2ccccc2C1)c1ccnc(NC2CCC2)c1 [GSK591] | 0.843 | 0.881
37 | COc1nc(OCc2cccc(-c3ccccc3)c2C)ccc1CNCCNC(C)=O [BMS202 (PD-1PD-L1 inhibitor 2)] | 0.99 | 0.905
38 | CC(C)(C)C(=O)Nc1ccc2c(c1)C(=O)C(=O)c1ccccc1-2 [SF1670] | 0.966 | 0.809
39 | Cc1cc(C)nc(NC(=S)N2CCN(Cc3ccc(C(F)(F)F)cc3)CC2)c1 [NCT-503] | 0.954 | 0.909
40 | CC(C)CCN1c2nc(Nc3cc(F)c(O)c(F)c3)ncc2N(C)C(=O)C1C (stereo not given) [BI-D1870] | 0.925 | 0.876
41 | CN1CCN(c2ccc3nc(-c4c(N)c5c(F)cccc5[nH]c4=O)[nH]c3c2)CC1 [Dovitinib (TKI258) Lactate] | 1.01 | 0.904
42 | COC(=O)c1ccc2c(C(=Nc3ccc(N(C)C(=O)CN4CCN(C)CC4)cc3)c3ccccc3)c(O)[nH]c2c1 [Nintedanib Ethanesulfonate Salt] | 0.833 | 0.791
43 | O=c1cc(N2CCOCC2)oc2c(-c3ccc4c(c3)OCCO4)csc12 [SF2523] | 0.968 | 0.768
44 | CC(C)Nc1cc(-c2c[nH]c(C(=O)N[C@H](CO)c3cccc(Cl)c3)c2)c(Cl)cn1 | 0.881 | 0.687
45 | CCCOc1ccn2c(C(C)=O)cc(-c3ccccc3S(C)(=O)=O)c2c1 [GSK2801] | 0.964 | 0.782
46 | O=C(O)c1ccc(O)c2ncccc12 [IOX1] | 0.95 | 0.871
47 | O=C(NCc1cccc(O)c1)Nc1nc(-c2ccncc2)cs1 [RKI-1447] | 1.04 | 0.962
48 | CN(c1ncccc1CNc1nc(Nc2ccc3c(c2)CC(=O)N3)ncc1C(F)(F)F)S(C)(=O)=O | 0.89 | 0.795
49 | Clc1ccc(NN=C(c2ccccc2)c2ccccn2)nc1 [JIB-04] | 0.641 | 0.662
50 | CC(C)c1c(-c2ccccc2)nc2c(C#N)c[nH]n2c1=O [CPI-455 HCl] | 0.972 | 0.898
51 | C=CCn1c(=O)c2cnc(Nc3ccc(N4CCN(C)CC4)cc3)nc2n1-c1cccc(C(C)(C)O)n1 [Adavosertib(MK-1775)] | 0.582 | 0.662
52 | Cc1cnc(-c2ccccc2C(C)C)nc1NCc1ccc(-n2ccnn2)cc1 [ML323] | 0.932 | 0.871
53 | CC(C(=O)Nc1cccc(/N=C/c2c(O)ccc3ccccc23)c1)c1ccccc1 (stereo not given) [Salermide] | 0.876 | 0.858
54 | Cc1ccc2nc(NCCN)c3ncc(C)n3c2c1 | 0.853 | 0.857
55 | CC(C)(C)S(=O)(=O)c1ccc2nccc(Nc3n[nH]c4ccc(F)cc34)c2c1 [GSK583] | 0.9 | 0.893
